Results on four molecules are retold here after PMC3914206.

Holding throughout (type): binding
What all share (design): KINOMEscan: ABL1(F317L)-phosphorylated / KINOMEscan: ABL1(H396P)-nonphosphorylated / KINOMEscan: ABL1(H396P)-phosphorylated / KINOMEscan: ABL1(M351T)-phosphorylated / KINOMEscan: ABL1(T315I)-phosphorylated / KINOMEscan: ABL1-nonphosphorylated / KINOMEscan: ABL1-phosphorylated / KINOMEscan: ACVR2A / KINOMEscan: ACVR2B / KINOMEscan: ADCK3 / KINOMEscan: ADCK4 / KINOMEscan: AKT1 / KINOMEscan: AKT3 / KINOMEscan: ALK / KINOMEscan: ARK5 / KINOMEscan: AURKA / KINOMEscan: AURKC / KINOMEscan: BIKE / KINOMEscan: BMPR1A / KINOMEscan: BMPR1B / KINOMEscan: BMX / KINOMEscan: BRK / KINOMEscan: BRSK1 / KINOMEscan: BRSK2 / KINOMEscan: CAMK1 / KINOMEscan: CAMK1D / KINOMEscan: CAMK1G / KINOMEscan: CAMK2A / KINOMEscan: CAMK2B / KINOMEscan: AAK1 / KINOMEscan: CAMK2D / KINOMEscan: CAMK2G / KINOMEscan: ABL1(F317I)-nonphosphorylated / KINOMEscan: ABL1(F317I)-phosphorylated / KINOMEscan: ABL1(F317L)-nonphosphorylated: unit: % Ctrl
Common to all, as to conditions: Compound Concentration 10 µM

For assay [1], the target named is T1, panel of 442 kinases (Homo sapiens, UniProt P21127).
T1 construct: purchased KINOMEscan
From the text:
(§1) We assessed the selectivity of members of this scaffold using the KINOMEscan methodology across a near comprehensive panel of 442 kinases [[18,27]].

The target in assay [2] is T2, panel of 442 kinases (Homo sapiens, UniProt Q9NSY1).
T2 construct: purchased KINOMEscan
Text: as §1

In assay [3] the target is T3, panel of 442 kinases (Homo sapiens, UniProt Q14680).
T3 construct: purchased KINOMEscan
Text: as §1

T3 sequence (Q14680 whole entry): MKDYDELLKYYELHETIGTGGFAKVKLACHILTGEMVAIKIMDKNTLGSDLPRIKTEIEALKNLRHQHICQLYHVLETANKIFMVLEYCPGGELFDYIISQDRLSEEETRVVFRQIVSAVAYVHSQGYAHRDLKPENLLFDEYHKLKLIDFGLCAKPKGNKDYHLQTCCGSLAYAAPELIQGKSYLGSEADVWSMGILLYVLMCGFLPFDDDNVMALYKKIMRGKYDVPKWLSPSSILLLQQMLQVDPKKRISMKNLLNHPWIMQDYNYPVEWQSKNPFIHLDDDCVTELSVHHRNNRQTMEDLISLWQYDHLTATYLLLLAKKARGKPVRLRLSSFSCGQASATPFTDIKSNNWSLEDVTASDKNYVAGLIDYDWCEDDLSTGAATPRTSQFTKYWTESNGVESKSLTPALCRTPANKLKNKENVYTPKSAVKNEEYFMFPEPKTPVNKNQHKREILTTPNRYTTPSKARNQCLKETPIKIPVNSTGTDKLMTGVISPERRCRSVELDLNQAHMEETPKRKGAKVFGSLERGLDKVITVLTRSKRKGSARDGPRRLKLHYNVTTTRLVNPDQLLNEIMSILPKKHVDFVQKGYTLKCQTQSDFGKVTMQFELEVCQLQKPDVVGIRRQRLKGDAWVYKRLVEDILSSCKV
T1 sequence (P21127 whole entry): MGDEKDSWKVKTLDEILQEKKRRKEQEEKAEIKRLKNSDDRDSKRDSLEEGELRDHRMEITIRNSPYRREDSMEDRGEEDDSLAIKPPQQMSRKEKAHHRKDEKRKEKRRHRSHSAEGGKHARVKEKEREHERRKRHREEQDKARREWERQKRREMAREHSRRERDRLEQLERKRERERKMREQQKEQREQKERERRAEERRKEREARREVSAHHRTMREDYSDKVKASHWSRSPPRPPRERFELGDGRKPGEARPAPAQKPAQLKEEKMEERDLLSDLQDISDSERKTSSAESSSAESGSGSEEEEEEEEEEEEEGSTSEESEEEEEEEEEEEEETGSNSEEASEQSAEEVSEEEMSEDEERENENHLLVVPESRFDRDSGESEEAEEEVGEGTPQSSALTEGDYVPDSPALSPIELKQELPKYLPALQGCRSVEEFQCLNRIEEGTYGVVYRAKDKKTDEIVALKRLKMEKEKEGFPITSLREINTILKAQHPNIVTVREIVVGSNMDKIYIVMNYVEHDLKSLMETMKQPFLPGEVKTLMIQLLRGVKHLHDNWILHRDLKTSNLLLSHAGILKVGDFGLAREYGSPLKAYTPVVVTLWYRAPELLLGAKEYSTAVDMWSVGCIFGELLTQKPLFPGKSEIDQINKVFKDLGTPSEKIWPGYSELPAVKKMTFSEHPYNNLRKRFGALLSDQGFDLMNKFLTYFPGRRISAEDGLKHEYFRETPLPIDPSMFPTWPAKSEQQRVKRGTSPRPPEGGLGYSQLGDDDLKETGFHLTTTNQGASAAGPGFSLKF
T2 sequence (Q9NSY1 whole entry): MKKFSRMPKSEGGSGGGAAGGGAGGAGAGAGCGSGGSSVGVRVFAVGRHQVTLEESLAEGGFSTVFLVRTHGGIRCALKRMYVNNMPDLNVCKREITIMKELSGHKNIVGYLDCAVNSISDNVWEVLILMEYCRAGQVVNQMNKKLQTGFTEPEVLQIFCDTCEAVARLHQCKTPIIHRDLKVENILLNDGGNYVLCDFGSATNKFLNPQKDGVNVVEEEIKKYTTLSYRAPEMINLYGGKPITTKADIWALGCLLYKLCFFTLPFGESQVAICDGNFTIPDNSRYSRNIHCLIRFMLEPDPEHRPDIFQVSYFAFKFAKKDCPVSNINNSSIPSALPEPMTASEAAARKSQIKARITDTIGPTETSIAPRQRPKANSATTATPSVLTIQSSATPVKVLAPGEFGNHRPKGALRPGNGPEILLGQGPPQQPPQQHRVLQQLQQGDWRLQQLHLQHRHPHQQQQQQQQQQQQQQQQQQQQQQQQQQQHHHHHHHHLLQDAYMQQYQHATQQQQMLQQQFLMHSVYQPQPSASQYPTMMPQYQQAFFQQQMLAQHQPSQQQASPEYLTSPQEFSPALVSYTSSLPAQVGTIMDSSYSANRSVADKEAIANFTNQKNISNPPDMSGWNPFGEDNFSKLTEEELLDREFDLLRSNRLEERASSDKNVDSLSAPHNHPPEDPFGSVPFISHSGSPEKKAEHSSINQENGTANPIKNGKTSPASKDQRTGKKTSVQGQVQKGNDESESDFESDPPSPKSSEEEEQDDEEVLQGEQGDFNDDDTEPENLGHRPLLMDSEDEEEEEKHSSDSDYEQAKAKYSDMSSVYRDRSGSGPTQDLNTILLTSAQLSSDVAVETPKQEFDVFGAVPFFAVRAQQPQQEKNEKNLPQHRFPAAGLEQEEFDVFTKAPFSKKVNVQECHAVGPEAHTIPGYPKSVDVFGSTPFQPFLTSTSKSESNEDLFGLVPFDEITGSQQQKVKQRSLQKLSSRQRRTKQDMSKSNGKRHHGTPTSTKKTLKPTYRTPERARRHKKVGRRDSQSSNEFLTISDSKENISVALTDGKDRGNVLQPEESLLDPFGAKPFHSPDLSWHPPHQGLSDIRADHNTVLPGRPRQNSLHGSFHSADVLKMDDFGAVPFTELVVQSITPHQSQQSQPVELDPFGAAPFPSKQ

In the case of `COc1cc(C(=O)N2CCC(N3CCN(C)CC3)CC2)ccc1Nc1ncc2c(n1)N(C)c1ccccc1C(=O)N2C` [15 (LRRK2-IN-1)], in assay [1], the “KINOMEscan: CDC2L1” value was 84. In addition, the “KINOMEscan: BIKE” value in assay [2] came out at 100. For the same molecule, the “KINOMEscan: MELK” value in assay [3] worked out at 100.
For `COc1cc(C(=O)N2CCC(N3CCN(C)CC3)CC2)ccc1Nc1ncc2c(n1)N1CCc3cccc(c31)C(=O)N2C` [Compound 24], the “KINOMEscan: BIKE” value in assay [2] is 73. Further, the “KINOMEscan: MELK” value in assay [3] was 62.
Take `COc1cc(C(=O)N2CCC(N3CCN(C)CC3)CC2)ccc1Nc1ncc2c(n1)N(C1CCCC1)c1ccccc1C(=O)N2C` [Compound 25, 11-cyclopentyl-2-((2-methoxy-4-(4-(4-methylpiperazin-1-yl)piperidine-1-carbonyl)phenyl)amino)-5-methyl-5H-benzo[e]pyrimido[5,4-b][1,4]diazepin-6(11H)-one]: in assay [1], the “KINOMEscan: CDC2L1” value was 81. Moreover, the “KINOMEscan: BIKE” value in assay [2] is reported as 93. The “KINOMEscan: MELK” value in assay [3] stood at 100.
`CCOc1cc(C(=O)N2CCC(N3CCN(C)CC3)CC2)ccc1Nc1ncc2c(n1)N(C1CCCC1)c1ccccc1C(=O)N2C` [Compound 26]: the “KINOMEscan: CDC2L1” value in assay [1] was found to be 100. The “KINOMEscan: BIKE” value in assay [2] was 100. Besides, the “KINOMEscan: MELK” value in assay [3] was 100.
